Test results as given in patent US7041851B2, “Fluorinated phenyl thiophenyl derivatives and their use for imaging serotonin transporters” (The Trustees of the University of Pennsylvania, priority 2002, dated 2006).

Assays:
SERT = target: T1, SERT (Rattus norvegicus, UniProt P31652); test: Pretreatment with monoamine reuptake inhibitors, specific binding of [18F]ACF in rat brain regions; assay type: in vivo, rats; set-up: Tracer uptake: Cortex / Tracer uptake: Remainder / Tracer uptake: Hypothalamus / Tracer uptake: Whole brain / Tracer uptake: Blood / Tracer uptake: Cerebellum / Tracer uptake: Striatum / Tracer uptake: Hippocampus: unit not given here; conditions: for Ratio to Cerebellum: Cerebellum / Ratio to Cerebellum: Cortex / Ratio to Cerebellum: Hippocampus / Ratio to Cerebellum: Hypothalamus / Ratio to Cerebellum: Remainder / Ratio to Cerebellum: Striatum / Tracer uptake: Blood / Tracer uptake: Cerebellum / Tracer uptake: Cortex / Tracer uptake: Hippocampus / Tracer uptake: Hypothalamus / Tracer uptake: Remainder / Tracer uptake: Striatum / Tracer uptake: Whole brain: 1 h after tracer
T1 construct: from tissue; host or cells: rat brain in vivo (hypothalamus, striatum, hippocampus, cerebellum)

[1] = In vivo metabolism of [18F]ACF in rats; conditions: three rats, one hour after iv injection
Experimental: In vivo metabolism of [^18F]ACF ([^18F]25), in three rats was evaluated at one hour after iv injection.

[2] = Organ distribution and brain regional uptake of [18F]ACF in rats
[3] = rats, Control (saline-pretreated)
[4] = rats, pretreated (+)McN5652 2 mg/kg iv 5 min prior
[5] = rats, pretreated Methylphenidate 2 mg/kg iv 5 min prior
[6] = rats, pretreated Nisoxetine 2 mg/kg iv 5 min prior

T1 sequence (P31652 whole entry): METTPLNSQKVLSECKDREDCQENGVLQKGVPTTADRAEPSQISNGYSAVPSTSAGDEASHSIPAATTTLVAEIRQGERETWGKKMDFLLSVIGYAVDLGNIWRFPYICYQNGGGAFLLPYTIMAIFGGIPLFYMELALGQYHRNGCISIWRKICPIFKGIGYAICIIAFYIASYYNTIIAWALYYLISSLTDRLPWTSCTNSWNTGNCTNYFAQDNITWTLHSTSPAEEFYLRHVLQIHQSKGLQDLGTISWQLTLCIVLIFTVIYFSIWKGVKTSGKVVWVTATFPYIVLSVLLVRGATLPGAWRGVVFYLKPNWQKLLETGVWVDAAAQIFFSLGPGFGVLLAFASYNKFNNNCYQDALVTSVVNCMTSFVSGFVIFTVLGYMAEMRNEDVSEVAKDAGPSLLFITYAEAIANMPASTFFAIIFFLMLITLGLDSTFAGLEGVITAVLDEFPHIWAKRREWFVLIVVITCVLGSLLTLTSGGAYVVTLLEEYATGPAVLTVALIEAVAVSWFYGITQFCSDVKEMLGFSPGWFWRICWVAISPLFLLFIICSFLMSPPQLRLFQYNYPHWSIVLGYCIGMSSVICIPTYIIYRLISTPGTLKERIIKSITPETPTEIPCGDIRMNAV

**Q.** With `CN(C)Cc1ccccc1Sc1cc([18F])c(Cl)cc1N` [[^18F]ACF] as the molecule, how does the “Specific retention in brain regions after pretreatment” value (SERT; rats pretreated with methylphenidate) read?
**A.** Its value is “No significant differences”.

**Q.** And the “Specific retention in brain regions after pretreatment” value (SERT; rats pretreated with nisoxetine)?
**A.** The value was “No significant differences”.

**Q.** And the “Specific retention in hypothalamus, striatum and hippocampus after pretreatment” value (SERT; rats, 60 min, (+)McN5652 2 mg/Kg 5 min prior to tracer injection)?
**A.** The value was “significant decrease”.

**Q.** What about the “Ratio to Cerebellum: Cerebellum” value (SERT; [3]) of the same molecule?
**A.** The value was 1.00 ± 0.00.

**Q.** And the “Ratio to Cerebellum: Cortex” value (SERT; [3])?
**A.** The value was 1.86 ± 0.05.

**Q.** And the “Ratio to Cerebellum: Hippocampus” value (SERT; [3])?
**A.** Its value is 2.52 ± 0.13.

**Q.** What about the “Ratio to Cerebellum: Hypothalamus” value (SERT; [3]) of the same molecule?
**A.** Its value is 2.96 ± 0.03.

**Q.** What about the “Ratio to Cerebellum: Remainder” value (SERT; [3]) of the same molecule?
**A.** Its value is 2.26 ± 0.03.

**Q.** And the “Ratio to Cerebellum: Striatum” value (SERT; [3])?
**A.** Its value is 2.63 ± 0.23.

**Q.** And the “Tracer uptake: Blood” value (SERT; [3])?
**A.** The value was 0.26 ± 0.03.

**Q.** And the “Tracer uptake: Cerebellum” value (SERT; [3])?
**A.** The value was 0.21 ± 0.02.

**Q.** And the “Tracer uptake: Cortex” value (SERT; [3])?
**A.** Its value is 0.39 ± 0.03.

**Q.** And the “Tracer uptake: Hippocampus” value (SERT; [3])?
**A.** Its value is 0.53 ± 0.03.

**Q.** What about the “Tracer uptake: Hypothalamus” value (SERT; [3]) of the same molecule?
**A.** Its value is 0.63 ± 0.05.

**Q.** What about the “Tracer uptake: Remainder” value (SERT; [3]) of the same molecule?
**A.** The value was 0.48 ± 0.04.

**Q.** And the “Tracer uptake: Striatum” value (SERT; [3])?
**A.** The value was 0.56 ± 0.09.

**Q.** What about the “Tracer uptake: Whole brain” value (SERT; [3]) of the same molecule?
**A.** The value was 0.81 ± 0.09.

**Q.** What about the “Ratio to Cerebellum: Cerebellum” value (SERT; [4]) of the same molecule?
**A.** Its value is 1.00 ± 0.00.

**Q.** And the “Ratio to Cerebellum: Cortex” value (SERT; [4])?
**A.** Its value is 1.43 ± 0.27.

**Q.** And the “Ratio to Cerebellum: Hippocampus” value (SERT; [4])?
**A.** Its value is 1.93 ± 0.21.

**Q.** And the “Ratio to Cerebellum: Hypothalamus” value (SERT; [4])?
**A.** The value was 1.36 ± 0.15.

**Q.** And the “Ratio to Cerebellum: Remainder” value (SERT; [4])?
**A.** Its value is 1.37 ± 0.16.

**Q.** And the “Ratio to Cerebellum: Striatum” value (SERT; [4])?
**A.** The value was 1.48 ± 0.32.

**Q.** What about the “Tracer uptake: Blood” value (SERT; [4]) of the same molecule?
**A.** The value was 0.26 ± 0.03.

**Q.** And the “Tracer uptake: Cerebellum” value (SERT; [4])?
**A.** Its value is 0.17 ± 0.03.

**Q.** What about the “Tracer uptake: Cortex” value (SERT; [4]) of the same molecule?
**A.** The value was 0.24 ± 0.02.

**Q.** What about the “Tracer uptake: Hippocampus” value (SERT; [4]) of the same molecule?
**A.** Its value is 0.34 ± 0.06.

**Q.** What about the “Tracer uptake: Hypothalamus” value (SERT; [4]) of the same molecule?
**A.** Its value is 0.24 ± 0.03.

**Q.** And the “Tracer uptake: Remainder” value (SERT; [4])?
**A.** The value was 0.23 ± 0.01.

**Q.** And the “Tracer uptake: Striatum” value (SERT; [4])?
**A.** The value was 0.25 ± 0.03.

**Q.** What about the “Tracer uptake: Whole brain” value (SERT; [4]) of the same molecule?
**A.** Its value is 0.42 ± 0.02.

**Q.** What about the “Ratio to Cerebellum: Cerebellum” value (SERT; [5]) of the same molecule?
**A.** Its value is 1.00 ± 0.00.

**Q.** And the “Ratio to Cerebellum: Cortex” value (SERT; [5])?
**A.** Its value is 2.02 ± 0.21.

**Q.** What about the “Ratio to Cerebellum: Hippocampus” value (SERT; [5]) of the same molecule?
**A.** The value was 2.50 ± 0.15.

**Q.** What about the “Ratio to Cerebellum: Hypothalamus” value (SERT; [5]) of the same molecule?
**A.** The value was 3.05 ± 0.14.

**Q.** What about the “Ratio to Cerebellum: Remainder” value (SERT; [5]) of the same molecule?
**A.** Its value is 2.23 ± 0.05.

**Q.** And the “Ratio to Cerebellum: Striatum” value (SERT; [5])?
**A.** The value was 2.75 ± 0.09.

**Q.** What about the “Tracer uptake: Blood” value (SERT; [5]) of the same molecule?
**A.** Its value is 0.28 ± 0.02.

**Q.** And the “Tracer uptake: Cerebellum” value (SERT; [5])?
**A.** The value was 0.17 ± 0.02.

**Q.** And the “Tracer uptake: Cortex” value (SERT; [5])?
**A.** The value was 0.35 ± 0.03.

**Q.** What about the “Tracer uptake: Hippocampus” value (SERT; [5]) of the same molecule?
**A.** The value was 0.43 ± 0.03.

**Q.** What about the “Tracer uptake: Hypothalamus” value (SERT; [5]) of the same molecule?
**A.** The value was 0.52 ± 0.07.

**Q.** And the “Tracer uptake: Remainder” value (SERT; [5])?
**A.** The value was 0.38 ± 0.05.

**Q.** What about the “Tracer uptake: Striatum” value (SERT; [5]) of the same molecule?
**A.** Its value is 0.47 ± 0.06.

**Q.** And the “Tracer uptake: Whole brain” value (SERT; [5])?
**A.** The value was 0.67 ± 0.04.

**Q.** And the “Ratio to Cerebellum: Cerebellum” value (SERT; [6])?
**A.** Its value is 1.00 ± 0.00.

**Q.** What about the “Ratio to Cerebellum: Cortex” value (SERT; [6]) of the same molecule?
**A.** The value was 1.94 ± 0.16.

**Q.** And the “Ratio to Cerebellum: Hippocampus” value (SERT; [6])?
**A.** The value was 2.44 ± 0.11.

**Q.** And the “Ratio to Cerebellum: Hypothalamus” value (SERT; [6])?
**A.** Its value is 2.89 ± 0.11.

**Q.** What about the “Ratio to Cerebellum: Remainder” value (SERT; [6]) of the same molecule?
**A.** The value was 2.17 ± 0.04.

**Q.** And the “Ratio to Cerebellum: Striatum” value (SERT; [6])?
**A.** The value was 2.50 ± 0.12.

**Q.** And the “Tracer uptake: Blood” value (SERT; [6])?
**A.** Its value is 0.26 ± 0.01.

**Q.** And the “Tracer uptake: Cerebellum” value (SERT; [6])?
**A.** The value was 0.19 ± 0.01.

**Q.** What about the “Tracer uptake: Cortex” value (SERT; [6]) of the same molecule?
**A.** Its value is 0.37 ± 0.04.

**Q.** What about the “Tracer uptake: Hippocampus” value (SERT; [6]) of the same molecule?
**A.** The value was 0.46 ± 0.02.

**Q.** What about the “Tracer uptake: Hypothalamus” value (SERT; [6]) of the same molecule?
**A.** The value was 0.55 ± 0.02.

**Q.** What about the “Tracer uptake: Remainder” value (SERT; [6]) of the same molecule?
**A.** The value was 0.41 ± 0.01.

**Q.** And the “Tracer uptake: Striatum” value (SERT; [6])?
**A.** Its value is 0.47 ± 0.03.

**Q.** What about the “Tracer uptake: Whole brain” value (SERT; [6]) of the same molecule?
**A.** Its value is 0.74 ± 0.04.

**Q.** And the “Activity extracted from the brain that was original compound (HPLC)” value [1]?
**A.** Its value is 95.5±0.40%.

**Q.** What about the “Percentage of organic-extractable material, kidney” value [1] of the same molecule?
**A.** Its value is 20.25±0.60%.

**Q.** And the “Percentage of organic-extractable material, liver” value [1]?
**A.** The value was 20.03±6.60%.

**Q.** And the “Percentage of organic-extractable material, plasma” value [1]?
**A.** The value was 6.76±1.00%.

**Q.** And the “Organ distribution: Blood” value ([2]; 2 min after iv injection)?
**A.** Its value is 6.56 ± 0.64 % dose/organ.

**Q.** And the “Organ distribution: Bone” value ([2]; 2 min after iv injection)?
**A.** The value was 0.01 ± 0.00 % dose/organ.

**Q.** What about the “Organ distribution: Brain” value ([2]; 2 min after iv injection) of the same molecule?
**A.** Its value is 3.27±0.79 % dose/organ.

**Q.** And the “Organ distribution: Heart” value ([2]; 2 min after iv injection)?
**A.** Its value is 1.69 ± 0.24 % dose/organ.

**Q.** And the “Organ distribution: Kidney” value ([2]; 2 min after iv injection)?
**A.** The value was 6.97 ± 0.73 % dose/organ.

**Q.** And the “Organ distribution: Liver” value ([2]; 2 min after iv injection)?
**A.** The value was 9.41 ± 1.82 % dose/organ.

**Q.** What about the “Organ distribution: Lung” value ([2]; 2 min after iv injection) of the same molecule?
**A.** The value was 14.89 ± 2.28 % dose/organ.

**Q.** What about the “Organ distribution: Muscle” value ([2]; 2 min after iv injection) of the same molecule?
**A.** The value was 14.34 ± 9.76 % dose/organ.

**Q.** What about the “Organ distribution: Skin” value ([2]; 2 min after iv injection) of the same molecule?
**A.** The value was 4.76 ± 0.89 % dose/organ.

**Q.** What about the “Organ distribution: Spleen” value ([2]; 2 min after iv injection) of the same molecule?
**A.** Its value is 0.64 ± 0.20 % dose/organ.

**Q.** And the “Ratio to Cerebellum: Cerebellum” value ([2]; 2 min after iv injection)?
**A.** Its value is 1.00 ± 0.00.

**Q.** And the “Ratio to Cerebellum: Cortex” value ([2]; 2 min after iv injection)?
**A.** Its value is 1.84 ± 0.43.

**Q.** And the “Ratio to Cerebellum: Hippocampus” value ([2]; 2 min after iv injection)?
**A.** Its value is 1.24 ± 0.15.

**Q.** And the “Ratio to Cerebellum: Hypothalamus” value ([2]; 2 min after iv injection)?
**A.** Its value is 1.37 ± 0.19.

**Q.** And the “Ratio to Cerebellum: Remainder” value ([2]; 2 min after iv injection)?
**A.** Its value is 1.32 ± 0.21.

**Q.** What about the “Ratio to Cerebellum: Striatum” value ([2]; 2 min after iv injection) of the same molecule?
**A.** Its value is 1.41 ± 0.31.

**Q.** And the “Regional brain distribution: Cerebellum” value ([2]; 2 min after iv injection)?
**A.** The value was 1.33 ± 0.51 % dose/g.

**Q.** What about the “Regional brain distribution: Cortex” value ([2]; 2 min after iv injection) of the same molecule?
**A.** Its value is 2.31 ± 0.46 % dose/g.

**Q.** What about the “Regional brain distribution: Hippocampus” value ([2]; 2 min after iv injection) of the same molecule?
**A.** The value was 1.60 ± 0.46 % dose/g.

**Q.** What about the “Regional brain distribution: Hypothalamus” value ([2]; 2 min after iv injection) of the same molecule?
**A.** The value was 1.76 ± 0.48 % dose/g.

**Q.** And the “Regional brain distribution: Remainder” value ([2]; 2 min after iv injection)?
**A.** The value was 1.69 ± 0.43 % dose/g.

**Q.** What about the “Regional brain distribution: Striatum” value ([2]; 2 min after iv injection) of the same molecule?
**A.** The value was 1.78 ± 0.36 % dose/g.

**Q.** And the “Organ distribution: Blood” value ([2]; 30 min after iv injection)?
**A.** Its value is 4.52 ± 0.22 % dose/organ.

**Q.** What about the “Organ distribution: Bone” value ([2]; 30 min after iv injection) of the same molecule?
**A.** Its value is 0.04 ± 0.03 % dose/organ.
